Test system: HEK293 clonal cell line overexpressing APOL1 G1
Assay: APOL1 G1 HEK293 cell rescue assay (Example B3)
Assay type: cell-based
Details: HEK293 clonal line overexpressing APOL1 G1; geometric mean of at least 2 runs; † = single run; ¥ = concentration at 50% rescue estimated (no sigmoidal curve)
Outline: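 Rescue of cell death caused by APOL1 G1 overexpression was measured in a clonal HEK293 line. Compounds were tested in duplicate on one plate, and EC50s were geometric means across at least two runs on different days. Some values are estimated 50%-rescue concentrations where curve fitting failed.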

Structure (SMILES) | EC50 [nM]
CC(COc1ccc(C2(S(C)(=O)=O)COC2)cc1)N1CCC2(CC1)C(=O)Nc1ccc(C#N)cc12 (single isomer, unassigned) [Compound 263, (S) or (R)-1′-{1-[4-(3-methanesulfonyloxetan-3-yl)phenoxy]propan-2-yl}-2-oxo-1,2-dihydrospiro[indole-3,4′-piperidine]-5-carbonitrile] | 462
CS(=O)(=O)c1ccc(OCCN2CCC3(CC2)C(=O)Nc2ccc(Cl)cc23)cc1C(F)CF (single isomer, unassigned) [Compound 219, 5-chloro-1′-(2-{3-[(1R or 1S)-1,2-difluoroethyl]-4-methanesulfonylphenoxy}ethyl)-1,2-dihydrospiro[indole-3,4′-piperidin]-2-one] | 116
CC(O)c1ncc(OCCN2CCC3(CC2)C(=O)Nc2ccc(Cl)cc23)cc1C(F)(F)F (single isomer, unassigned) [Compound 292, 5-chloro-1′-[2-({6-[(1S) or (1R)-1-hydroxyethyl]-5-(trifluoromethyl)pyridin-3-yl}oxy)ethyl]-1,2-dihydrospiro[indole-3,4′-piperidin]-2-one] | 51.5
CC(O)c1ncc(OCCN2CCC3(CC2)C(=O)Nc2ccc(Cl)cc23)cn1 (single isomer, unassigned) [Compound 286, 5-chloro-1′-[2-({2-[(1R) or (1S)-1-hydroxyethyl]pyrimidin-5-yl}oxy)ethyl]-1,2-dihydrospiro[indole-3,4′-piperidin]-2-one] | 272
CN1C(=O)C2(CCN(CCOc3ccc(C4(S(C)(=O)=O)CC(O)C4)cc3)CC2)c2cc(C(F)F)ccc21 (single isomer, unassigned) [Compound 278, 5-(difluoromethyl)-1-methyl-1′-(2-{4-[(cis) or (trans)-3-hydroxy-1-methanesulfonylcyclobutyl]phenoxy}ethyl)-1,2-dihydrospiro[indole-3,4′-piperidin]-2-one] | 92.6
CC(O)c1ncc(OCCN2CCC3(CC2)C(=O)Nc2ccc(Cl)cc23)cc1C(F)(F)F (single isomer, unassigned) [Compound 291, 5-chloro-1′-[2-({6-[(1R) or (1S)-1-hydroxyethyl]-5-(trifluoromethyl)pyridin-3-yl}oxy)ethyl]-1,2-dihydrospiro[indole-3,4′-piperidin]-2-one] | 104
CC(COc1ccc2c(c1)CCC(=O)N2C)N1CCC2(CC1)C(=O)Nc1ccc(Cl)cc12 (single isomer, unassigned) [Compound 200] | 203

Same assay, conditions: Homo sapiens, HEK293, HEK293 clonal line overexpressing APOL1 G1; geometric mean of at least 2 runs; † = single run; ¥ = concentration at 50% rescue estimated (no sigmoidal curve)

Structure (SMILES) | EC50 [nM]
CS(=O)(=O)c1ccc(OCCN2CCC3(CC2)C(=O)Nc2ccc(Cl)cc23)cc1C(O)CO (stereo not shown) [Compound 216, 5-chloro-1′-{2-[3-(1,2-dihydroxyethyl)-4-methanesulfonylphenoxy]ethyl}-1,2-dihydrospiro[indole-3,4′-piperidin]-2-one] | ~1000
Cn1c(=O)[nH]c2cc(OCCN3CCC4(CC3)C(=O)Nc3ccc(Cl)cc34)cnc21 [Compound 247, 5-chloro-1′-[2-({3-methyl-2-oxo-1H,2H,3H-imidazo[4,5-b]pyridin-6-yl}oxy)ethyl]-1,2-dihydrospiro[indole-3,4′-piperidin]-2-one] | 270
CNC(=O)C1(c2ccc(OCCN3CCC4(CC3)C(=O)Nc3ccc(C#N)cc34)cc2)COC1 [Compound 255, 3-[4-(2-{5-cyano-2-oxo-1,2-dihydrospiro[indole-3,4′-piperidin]-1′-yl}ethoxy)phenyl]-N-methyloxetane-3-carboxamide] | ~2900
CNC(=O)N1CCc2cc(OCCN3CCC4(CC3)C(=O)Nc3ccc(Cl)cc34)ccc2C1 [Compound 245, 6-(2-{5-chloro-2-oxo-1,2-dihydrospiro[indole-3,4′-piperidin]-1′-yl}ethoxy)-N-methyl-1,2,3,4-tetrahydroisoquinoline-2-carboxamide] | 301
O=C1Nc2ccc(Cl)cc2C12CCN(CCOc1ccc(S(=O)(=O)C3(CO)CC3)nc1)CC2 [Compound 248, 5-chloro-1′-{2-[(6-{[1-(hydroxymethyl)cyclopropyl]sulfonyl}pyridin-3-yl)oxy]ethyl}-1,2-dihydrospiro[indole-3,4′-piperidin]-2-one] | 219
CS(=O)(=O)c1ccc(OCCN2CCC3(CC2)C(=O)Nc2ccc(Cl)cc23)cc1C(F)F [Compound 197, 5-chloro-1′-{2-[3-(difluoromethyl)-4-methanesulfonylphenoxy]ethyl}-1,2-dihydrospiro[indole-3,4′-piperidin]-2-one] | 69.5
NC1CN(C(=O)c2ccc(OCCN3CCC4(CC3)C(=O)Nc3ccc(Cl)cc34)cc2F)C1 [Compound 236, 1′-{2-[4-(3-aminoazetidine-1-carbonyl)-3-fluorophenoxy]ethyl}-5-chloro-1,2-dihydrospiro[indole-3,4′-piperidin]-2-one] | 134
N#Cc1ccc2c(c1)C1(CCN(CCOc3ccc(C(N)=O)c(C(F)F)c3)CC1)C(=O)N2 [Compound 250, 4-(2-{5-cyano-2-oxo-1,2-dihydrospiro[indole-3,4′-piperidin]-1′-yl}ethoxy)-2-(difluoromethyl)benzamide] | 192
CNC(=O)c1ccc(OCCN2CCC3(CC2)C(=O)Nc2ccc(Cl)cc23)cc1F [Compound 229, 4-(2-{5-chloro-2-oxo-1,2-dihydrospiro[indole-3,4′-piperidin]-1′-yl}ethoxy)-2-fluoro-N-methylbenzamide] | 396
NC(=O)c1ccc(OCCN2CCC3(CC2)C(=O)Nc2ccc(Cl)cc23)cc1C(F)F [Compound 249, 4-(2-{5-chloro-2-oxo-1,2-dihydrospiro[indole-3,4′-piperidin]-1′-yl}ethoxy)-2-(difluoromethyl)benzamide] | 70.6
C[C@@H](COc1ccc2c(cnn2C)c1)N1CCC2(CC1)C(=O)Nc1ccc(Cl)cc12 (single isomer, unassigned) [Compound 211] | 380
CC(=O)N(C)CCS(=O)(=O)c1ccc(OCCN2CCC3(CC2)C(=O)Nc2ccc(Cl)cc23)cc1 [Compound 193, N-{2-[4-(2-{5-chloro-2-oxo-1,2-dihydrosiro[indole-3,4′-piperidin]-1′-yl}ethoxy)benzenesulfonyl]ethyl}-N-methylacetamide] | 377
CN(C)C(=O)C1(S(=O)(=O)c2ccc(OCCN3CCC4(CC3)C(=O)Nc3ccc(Cl)cc34)cc2)CC1 [Compound 227, 1-[4-(2-{5-chloro-2-oxo-1,2-dihydrospiro[indole-3,4′-piperidin]-1′-yl}ethoxy)benzenesulfonyl]-N,N-dimethylcyclopropane-1-carboxamide] | 210
N#Cc1ccc2c(c1)C1(CCN(CCOc3ccc(C(N)=O)c(F)c3)CC1)C(=O)N2 [Compound 238, 4-(2-{5-cyano-2-oxo-1,2-dihydrospiro[indole-3,4′-piperidin]-1′-yl}ethoxy)-2-fluorobenzamide] | 244
Cc1n[nH]cc1-c1ccc(OCCN2CCC3(CC2)C(=O)Nc2ccc(Cl)cc23)cc1 [Compound 244, 5-chloro-1′-{2-[4-(5-methyl-1H-pyrazol-4-yl)phenoxy]ethyl}-1,2-dihydrospiro[indole-3,4′-piperidin]-2-one] | 189
COCCN1C(=O)C2(CCN(CCOc3ccc(S(C)(=O)=O)cc3)CC2)c2cc(Cl)ccc21 [Compound 20, 5-chloro-1′-[2-(4-methanesulfonylphenoxy)ethyl]-1-(2-methoxyethyl)-1,2-dihydrospiro[indole-3,4′-piperidin]-2-one] | 815
CN1C(=O)C2(CCN(CCOc3ccc(S(=O)(=O)CCCS(C)(=O)=O)cc3)CC2)c2cc(Cl)ccc21 [Compound 23, 5-chloro-1′-{2-[4-(3-methanesulfonylpropanesulfonyl)phenoxy]ethyl}-1-methyl-1,2-dihydrospiro[indole-3,4′-piperidin]-2-one] | 449
CS(=O)(=O)NC1CN(C(=O)c2ccc(OCCN3CCC4(CC3)C(=O)Nc3ccc(Cl)cc34)cc2F)C1 [Compound 237, N-{1-[4-(2-{5-chloro-2-oxo-1,2-dihydrospiro[indole-3,4′-piperidin]-1′-yl}ethoxy)-2-fluorobenzoyl]azetidin-3-yl} methanesulfonamide] | > 3250
C[C@@H](COc1ccc(S(C)(=O)=O)c(C(F)F)c1)N1CCC2(CC1)C(=O)Nc1ccc(Cl)cc12 (single isomer, unassigned) [Compound 210] | 153
O=C1CCc2cc(OCCN3CCC4(CC3)C(=O)Nc3ccc(Cl)cc34)cnc2N1[C@H]1C[C@@](O)(C2CC2)C1 (single isomer, unassigned) [Compound 297, 5-chloro-1′-[2-({7-oxo-8-[(trans)-3-cyclopropyl-3-hydroxycyclobutyl]-5,6,7,8-tetrahydro-1,8-naphthyridin-3-yl}oxy)ethyl]-1,2-dihydrospiro[indole-3,4′-piperidin]-2-one] | 119
CC(O)c1ncc(OCCN2CCC3(CC2)C(=O)Nc2ccc(Cl)cc23)cn1 (single isomer, unassigned) [Compound 285, 5-chloro-1′-[2-({2-[(1S) or (1R)-1-hydroxyethyl]pyrimidin-5-yl}oxy)ethyl]-1,2-dihydrospiro[indole-3,4′-piperidin]-2-one] | 292
CN(C)C(=O)C1(c2ccc(OCCN3CCC4(CC3)C(=O)Nc3ccc(C#N)cc34)cc2)COC1 [Compound 254, 3-[4-(2-{5-cyano-2-oxo-1,2-dihydrospiro[indole-3,4′-piperidin]-1′-yl}ethoxy)phenyl]-N,N-dimethyloxetane-3-carboxamide] | 2040
O=C1CCc2cc(OCCN3CCC4(CC3)C(=O)Nc3ccc(Cl)cc34)cnc2N1CCO [Compound 192, 5-chloro-1′-(2-{[8-(2-hydroxyethyl)-7-oxo-5,6,7,8-tetrahydro-1,8-naphthyridin-3-yl]oxy}ethyl)-1,2-dihydrospiro[indole-3,4′-piperidin]-2-one] | 126
CS(=O)(=O)Nc1ccc(OCCN2CCC3(CC2)C(=O)Nc2ccc(Cl)cc23)cc1 [Compound 214, N-[4-(2-{5-chloro-2-oxo-1,2-dihydrospiro[indole-3,4′-piperidin]-1′-yl}ethoxy)phenyl]methanesulfonamide] | 169
